{"source": "patent US10881642B2", "about": "“Autophagy enhancer and use thereof” (Industry-Academic Cooperation Foundation, Yonsei University, priority 2016, dated 2021)", "system": "HeLa cells", "assay": "Autophagic flux in HeLa cells (RFP-LC3/LAMP1, mRFP-GFP-LC3, FYVE-dsRed, immunoblot)", "format": "cell-based", "procedure": "FIG. 2 indicates the results of the Hela Cells treated with Compound of formula I (hereinafter referred to as MSL) showing the increase of the autophagic flux in the cells treated. FIG. 2A indicates the results of the experiments in which HeLa cells transfected with RFP-LC3 plasmid for 48 hrs were treated with compound MSL of the present disclosure or vehicle control for 1 hr, which were then […] with antibody against LAMP1. The arrows indicate puncta. LC3 or the number of puncta was also indicated as bar graph. FIG. 2B indicates the results of the experiments in which HeLa cells transfected with mRFP-GFP-LC3 plasmid for 48 hrs were treated with compound MSL of the present disclosure or vehicle control for 1 hr, in which autophagosome (yellow puncta) or autophagolysosome (red puncta) were measured using Image J software. The number of puncta was indicated as bar graph. FIG. 2C indicates the results of the experiments in which HeLa cells transfected with FYVE-dsRed plasmid for 48 hrs were treated with compound MSL of the present disclosure or vehicle control for 1 hr, in which the number of FYVE-dsRed vesicles was measured. The measured value were average of the values obtained from at least 3 images. Error bars, S.D. **, P<0.01; ***, P<0.001.\nFIG. 10 is the result of the experiments using compound of formula 2 (hereinafter referred to as MSL-7) of the present disclosure as an autophagic enhancer. FIG. 10A is the result of immuneblot using the antibodies indicated using Hela cells treated with MSL or MSL-7. FIG. 10B is the result of measuring the viability of Hela cells treated with vehicle control or various concentration of MSL-7 (50-100 μM) for 48 hrs. FIG. 10C is the result of DAPI stained nuclei of TFEB-GFP HeLa cells which were treated with vehicle control or MSL-7 for 4 hrs. The graph indicates the percentage of TFEB translocated into the nuclei. Error bars, S.D. *, P<0.05; **, P<0.01; ***, P<0.001.\nFIG. 12 indicates the improvement of the metabolic profile of HFD-feed mice by MSL-7: (FIG. 12A) Confocal microscopic result of HeLa cells transfected with tandem mRFP-GFP-LC3 and treated with MSL-7 in which red puncta indicates autophagolysosome. (FIG. 12B, 12C) 8 week old male C57BL/6 mice were fed with HFD or normal chow diet (NCD) for 8 weeks, and then 50 mg/kg MSL-7 was administered three times a week for 8 weeks. Non-fasting glucose level (FIG. 12B) and body weight (FIG. 12C) were monitored. (FIG. 12D) IPGTT. (FIG. 12E) AUC curve of (FIG. 12D). (FIG. 12F) ITT. (FIG. 12G) AUC curve of (FIG. 12F).\nScreening of autophagy enhancer. […] Luciferase assay. Firefly and Renilla luciferase assays were conducted using the Dual-Luciferase Reporter Assay System (Promega) according to the manufacturer's recommendation. In brief, cells were lysed in 1× lysis buffer and subjected to a single round of freezing/thawing. Firefly luciferase was determined after mixing 5 μl of lysate with 25 μl of Luciferase Assay Reagent II. Renilla luciferase was then determined after further addition of 20 ul of Stop&Glo Reagent. Cell culture and media and drugs treatment. […]", "data": [{"molecule": "COc1oc(-c2ccccc2Cl)nc1S(=O)(=O)c1ccccc1", "note": "[MSL-7, 2-(2-chlorophenyl)-5-methoxy-4-(phenylsulfonyl) oxazole]", "values": [{"measurement": "autophagy-enhancing activity", "setting": "immunoblot, FIG. 10A", "result": "definite autophagy-enhancing activity"}, {"measurement": "formation of autophagolysosome", "setting": "mRFP-GFP-LC3, red puncta", "result": "induced"}]}, {"molecule": "CSc1oc(-c2ccccc2)nc1S(=O)(=O)c1ccc(F)cc1", "note": "[MSL]", "values": [{"measurement": "Recruitment of FYVE-dsRed+ vesicle", "setting": "1 hr", "result": "increased"}, {"measurement": "LC3+ autophagosome colocalization with lysosomal marker LAMP1", "setting": "RFP-LC3 transfected, 1 hr", "result": "positive for the lysosomal markers LAMP1"}, {"measurement": "number of yellow puncta (early autophagic organelles) and red puncta (autolysosomes)", "setting": "mRFP-GFP-LC3B probe, 1 hr", "result": "increases"}]}]}
